According to patent US20240279236A1, “COMPOUNDS AND METHODS OF TREATING TUBERCULOSIS” (Fimbrion Therapeutics, Inc., priority 2021, published 2024):

test system: WT Mtb Erdman strain; assay: Microplate Alamar Blue Assay (MABA), Mtb growth inhibition; type: cell-based, Mycobacterium tuberculosis; settings: Middlebrook 7H9 media, 7 days at 37° C. in 5% CO2

For `Cc1cc2c(NCCCc3ccc(-c4ccc(OC(F)(F)F)cc4)cc3)nc(N(C)C)nc2s1` [Example 535, N2,N2,6-trimethyl-N4-(3-(4′-(trifluoromethoxy)-[1,1′-biphenyl]-4-yl)propyl)thieno[2,3-d]pyrimidine-2,4-diamine], the IC50 was 4 nM.

same assay, conditions: Mycobacterium tuberculosis, ERDMAN, 168 h, Middlebrook 7H9 media, 7 days at 37° C. in 5% CO2

Compared with `Cc1cc2c(N[C@@H]3C[C@H]3c3ccc(F)c(F)c3)nc(N3CCC(F)(F)C3)nc2s1` [Example 523, N-((1R,2S)-2-(3,4-difluorophenyl)cyclopropyl)-2-(3,3-difluoropyrrolidin-1-yl)-6-methylthieno[2,3-d]pyrimidin-4-amine], `Cc1cc2c(N[C@@H]3C[C@H]3c3ccc(F)c(F)c3)nc(N3CC(F)(F)C3)nc2s1` [Example 524, 2-(3,3-difluoroazetidin-1-yl)-N-((1R,2S)-2-(3,4-difluorophenyl)cyclopropyl)-6-methylthieno[2,3-d]pyrimidin-4-amine] is higher in IC50: 4500 nM for the first, over 10000 nM for the second. The first is the more potent here.

First: CNc1nc(N[C@@H]2C[C@H]2c2ccc(F)c(F)c2)c2cc(C)sc2n1 [Example 525, N4-((1R,2S)-2-(3,4-difluorophenyl)cyclopropyl)-N2,6-dimethylthieno[2,3-d]pyrimidine-2,4-diamine]
Second: Cc1cc2c(N[C@@H]3C[C@H]3c3ccc(F)c(F)c3)nc(N)nc2s1 [Example 527, N4-((1R,2S)-2-(3,4-difluorophenyl)cyclopropyl)-6-methylthieno[2,3-d]pyrimidine-2,4-diamine]
The IC50 of the first is lower: 4800 nM for the first, over 10000 nM for the second.

Compared with `Cc1cc2c(N[C@@H]3C[C@H]3c3ccc(F)c(F)c3)nc(NC3COC3)nc2s1` [Example 526, N4-((1R,2S)-2-(3,4-difluorophenyl)cyclopropyl)-6-methyl-N2-(oxetan-3-yl)thieno[2,3-d]pyrimidine-2,4-diamine], `Cc1cc2c(N[C@H]3C[C@@H]3c3ccc(F)c(F)c3)nc(-c3ccc[nH]3)nc2s1` [Example 566, N-((1S,2R)-2-(3,4-difluorophenyl)cyclopropyl)-6-methyl-2-(1H-pyrrol-2-yl)thieno[2,3-d]pyrimidin-4-amine] is lower in IC50: over 10000 nM for the first, 1600 nM for the second.

Compared with `Cc1cc2c(NCCCc3ccc(-c4ccc(OC(F)(F)F)cc4)cc3)nc(N3CCCC3)nc2s1` [Example 528, 6-methyl-2-(pyrrolidin-1-yl)-N-(3-(4′-(trifluoromethoxy)-[1,1′-biphenyl]-4-yl)propyl)thieno[2,3-d]pyrimidin-4-amine], `Cc1cc2c(NCCCc3ccc(-c4ccc(OC(F)(F)F)cc4)cc3)nc(N3CCC3)nc2s1` [Example 533, 2-(azetidin-1-yl)-6-methyl-N-(3-(4′-(trifluoromethoxy)-[1,1′-biphenyl]-4-yl)propyl)thieno[2,3-d]pyrimidin-4-amine] is 52-fold higher in IC50: 18 nM for the first, 930 nM for the second.

Going from `Cc1cc2c(NCCCc3ccccc3)nc(NCc3ccco3)nc2s1` [Example 529, N2-(furan-2-ylmethyl)-6-methyl-N4-(3-phenylpropyl)thieno[2,3-d]pyrimidine-2,4-diamine] to `CCOc1nc(NCCCc2ccccc2)c2cc(C)sc2n1` [Example 543, 2-ethoxy-6-methyl-N-(3-phenylpropyl)thieno[2,3-d]pyrimidin-4-amine], the IC50 falls from over 10000 nM to 130 nM. The second is the more potent here.

First: Cc1cc2c(NCCCc3ccc(-c4ccc(Cl)cc4)cc3)nc(N(C)C)nc2s1 [Example 531, N4-(3-(4′-chloro-[1,1′-biphenyl]-4-yl)propyl)-N2,N2,6-trimethylthieno[2,3-d]pyrimidine-2,4-diamine]
Second: Cc1cc2c(NCCCc3ccc(-c4ccc(F)cc4)cc3)nc(N(C)C)nc2s1 [Example 556, N4-(3-(4′-fluoro-[1,1′-biphenyl]-4-yl)propyl)-N2,N2,6-trimethylthieno[2,3-d]pyrimidine-2,4-diamine]
The IC50 of the first is higher: 12 nM for the first, under 4 nM for the second.

First: CNc1nc(NCCCc2ccc(-c3ccc(OC(F)(F)F)cc3)cc2)c2cc(C)sc2n1 [Example 532, N2,6-dimethyl-N4-(3-(4′-(trifluoromethoxy)-[1,1′-biphenyl]-4-yl)propyl)thieno[2,3-d]pyrimidine-2,4-diamine]
Second: Cc1cc2c(NCCCc3ccc(-c4ccc(OC(F)(F)F)cc4)cc3)nc(N)nc2s1 [Example 537, 6-methyl-N4-(3-(4′-(trifluoromethoxy)-[1,1′-biphenyl]-4-yl)propyl)thieno[2,3-d]pyrimidine-2,4-diamine]
The IC50 of the first is 2.7-fold lower: 49 nM for the first, 130 nM for the second.

First: Cc1cc2c(NCCCc3ccc(-c4ccc(OC(F)(F)F)cc4)cc3)nc(N3CCC(F)(F)C3)nc2s1 [Example 534, 2-(3,3-difluoropyrrolidin-1-yl)-6-methyl-N-(3-(4′-(trifluoromethoxy)-[1,1′-biphenyl]-4-yl)propyl)thieno[2,3-d]pyrimidin-4-amine]
Second: COc1nc(NCCCc2ccc(-c3ccc(OC(F)(F)F)cc3)cc2)c2cc(C)sc2n1 [Example 545, 2-methoxy-6-methyl-N-(3-(4′-(trifluoromethoxy)-[1,1′-biphenyl]-4-yl)propyl)thieno[2,3-d]pyrimidin-4-amine]
The IC50 of the first is 8.6-fold higher: 86 nM for the first, 10 nM for the second. The second is the more potent here.

`CN(C)c1nc(NCCCc2ccc(-c3ccc(OC(F)(F)F)cc3)cc2)c2ncsc2n1` [Example 536, N5,N5-dimethyl-N7-(3-(4′-(trifluoromethoxy)-[1,1′-biphenyl]-4-yl)propyl)thiazolo[5,4-d]pyrimidine-5,7-diamine] and `CCN(C)c1nc(NCCCc2ccc(-c3ccc(OC(F)(F)F)cc3)cc2)c2cc(C)sc2n1` [Example 538, N2-ethyl-N2,6-dimethyl-N4-(3-(4′-(trifluoromethoxy)-[1,1′-biphenyl]-4-yl)propyl)thieno[2,3-d]pyrimidine-2,4-diamine] are within 1.5-fold of each other in IC50: 88 nM for the first, 100 nM for the second.

First: CNc1nc(NCCCc2ccc(-c3ccc(N(C)C)cc3)cc2)c2cc(C)sc2n1 [Example 539, N4-(3-(4′-(dimethylamino)-[1,1′-biphenyl]-4-yl)propyl)-N2,6-dimethylthieno[2,3-d]pyrimidine-2,4-diamine]
Second: Cc1cc2c(NCCCc3ccc(-c4ccc(F)nc4)cc3)nc(N(C)C)nc2s1 [Example 555, N4-(3-[4-(6-fluoropyridin-3-yl)phenyl]propyl)-N2,N2,6-trimethylthieno[2,3-d]pyrimidine-2,4-diamine]
The IC50 of the first is 2.3-fold higher: 68 nM for the first, 29 nM for the second.

Going from `CCOc1nc(NCCCc2ccccc2)c2ccsc2n1` [Example 542, 2-ethoxy-N-(3-phenylpropyl)thieno[2,3-d]pyrimidin-4-amine] to `CCOc1nc(NCCCc2ccc(-c3cnc(C(F)(F)F)cn3)cc2)c2cc(C)sc2n1` [Example 560, 2-ethoxy-6-methyl-N-(3-(4-[5-(trifluoromethyl)pyrazin-2-yl]phenyl)propyl)thieno[2,3-d]pyrimidin-4-amine], the IC50 falls from 150 nM to 50 nM (3-fold). The second is the more potent here.

First: CCOc1nc(NCCCc2ccc(-c3ccc(OC(F)(F)F)cc3)cc2)c2cc(C)sc2n1 [Example 546, 2-ethoxy-6-methyl-N-(3-(4′-(trifluoromethoxy)-[1,1′-biphenyl]-4-yl)propyl)thieno[2,3-d]pyrimidin-4-amine]
Second: Cc1cc2c(NCCCc3ccc(-c4ccc(OC(F)(F)F)cc4)cc3)nc(-c3cc[nH]c3)nc2s1 [Example 568, 6-methyl-2-(1H-pyrrol-3-yl)-N-(3-(4′-(trifluoromethoxy)-[1,1′-biphenyl]-4-yl)propyl)thieno[2,3-d]pyrimidin-4-amine]
The IC50 of the first is lower: 15 nM for the first, over 1000 nM for the second. The first is the more potent here.

Compared with `COc1nc(NCCCc2ccc(-c3ccc(OC(F)(F)F)cc3)cc2)c2nc(C)sc2n1` [Example 547, 5-methoxy-2-methyl-N-(3-[4′-(trifluoromethoxy)-[1,1′-biphenyl]-4-yl]propyl)-[1,3]thiazolo[5,4-d]pyrimidin-7-amine], `Cc1cc2c(NCCCc3ccc(-c4ccc(OC(F)(F)F)cc4)cc3)nc(-c3ccc[nH]3)nc2s1` [Example 567, 6-methyl-2-(1H-pyrrol-2-yl)-N-(3-(4′-(trifluoromethoxy)-[1,1′-biphenyl]-4-yl)propyl)thieno[2,3-d]pyrimidin-4-amine] is lower in IC50: 33 nM for the first, under 4 nM for the second.

Compared with `Cc1cc2c(NCCCc3ccc(-c4ccc([N+](=O)[O-])cc4)cc3)nc(N3CCCC3)nc2s1` [Example 549, 6-methyl-N-(3-(4′-nitro-[1,1′-biphenyl]-4-yl)propyl)-2-(pyrrolidin-1-yl)thieno[2,3-d]pyrimidin-4-amine], `Cc1cnc(-c2ccc(CCCNc3nc(N(C)C)nc4sc(C)cc34)cc2)cn1` [Example 559, N2,N2,6-trimethyl-N4-(3-[4-(5-methylpyrazin-2-yl)phenyl]propyl)thieno[2,3-d]pyrimidine-2,4-diamine] is 2.6-fold lower in IC50: 29 nM for the first, 11 nM for the second.

`Cc1cc2c(NCCCc3ccc(-c4ccc(C(F)(F)F)cn4)cc3)nc(N(C)C)nc2s1` [Example 557, N2,N2,6-trimethyl-N4-(3-(4-[5-(trifluoromethyl)pyridin-2-yl]phenyl)propyl)thieno[2,3-d]pyrimidine-2,4-diamine] and `Cc1cc2c(NCCCc3ccc(-c4ncc(C(F)(F)F)cn4)cc3)nc(N(C)C)nc2s1` [Example 558, N2,N2,6-trimethyl-N4-(3-(4-[5-(trifluoromethyl)pyrimidin-2-yl]phenyl)propyl)thieno[2,3-d]pyrimidine-2,4-diamine] cannot be ordered by IC50: under 4 nM for the first, under 4 nM for the second.

Going from `COc1nc(NCCCc2ccc(-c3cnc(F)cn3)cc2)c2cc(C)sc2n1` [Example 561, N-(3-[4-(5-fluoropyrazin-2-yl)phenyl]propyl)-2-methoxy-6-methylthieno[2,3-d]pyrimidin-4-amine] to `CNC(=O)c1nc(NCCCc2ccc(OC(F)(F)F)cc2)c2cc(C)sc2n1` [Example 564, N,6-dimethyl-4-((3-(4-(trifluoromethoxy)phenyl)propyl)amino)thieno[2,3-d]pyrimidine-2-carboxamide], the IC50 rises from 31 nM to 1200 nM (39-fold). The first is the more potent here.

Going from `CCc1nc(NCCCc2c[nH]nn2)c2cc(C)sc2n1` [Example 562, N-(3-(1H-1,2,3-triazol-4-yl)propyl)-2-ethyl-6-methylthieno[2,3-d]pyrimidin-4-amine] to `CCc1nc(NCCCc2cn(-c3ccccc3)nn2)c2cc(C)sc2n1` [Example 563, 2-ethyl-6-methyl-N-(3-(1-phenyl-1H-1,2,3-triazol-4-yl)propyl)thieno[2,3-d]pyrimidin-4-amine], the IC50 falls from over 10000 nM to 4700 nM. The second is the more potent here.

`Cc1cc2c(NCCCc3ccc(OC(F)(F)F)cc3)nc(C(=O)NC3CC3)nc2s1` [Example 565, N-cyclopropyl-6-methyl-4-((3-(4-(trifluoromethoxy)phenyl)propyl)amino)thieno[2,3-d]pyrimidine-2-carboxamide] gave an IC50 of 4300 nM.
